Source: patent publication US20070116831A1, “Dental Composition with High-Potency Sweetener” (THE COCA-COLA COMPANY, priority 2005, published 2007)

Assay: Rate of dissolution in H2O at 25° C. of rebaudioside A polymorph and amorphous forms
Type: physicochemical
Conditions: within 60 minutes
Source text: The purification of rebaudioside A by crystallization as described above results in the formation of at least three different polymorphs: Form 1: a rebaudioside A hydrate; Form 2: an anhydrous rebaudioside A; and Form 3: a rebaudioside A solvate. In addition to the at least three polymorph forms of rebaudioside A, the purification of rebaudioside A may result in the formation of an amorphous form of rebaudioside A, Form 4. The aqueous organic solution and temperature of the purification process influence the resulting polymorph and amorphous forms in the substantially pure rebaudioside A composition. FIGS. 1-5 are exemplary powder x-ray diffraction (XRPD) scans of the polymorph and amorphous forms Form 1 (hydrate), Form 2 (anhydrate), Form 3A (methanol solvate), Form 3B (ethanol solvate), and Form 4 (amorphous), respectively.

- Rate of dissolution in H2O at 25° C.: Very low (<0.2%/ %/60 minutes
Substance: rebaudioside A [Form 1]
